US20250051355A1, “COMPOUNDS, COMPOSITIONS, AND METHODS” (ACONCAGUA BIO, INC., priority 2023, published 2025)

Assays:
[1] = target: human calcitonin receptor (CTR) and RAMP3 (AMY3) (Homo sapiens, UniProt O60896+P30988); assay: Amylin Receptor cAMP Assay II; format: cell-based; conditions: COS-7/AMY3 cells, cAMP dynamic 2 kit, read-out: Amylin Receptor cAMP Stimulation Activity: EC50
From the text: Amylin Receptor cAMPAssay II
AMYRs are heterodimers of the class B calcitonin (CT) G-protein-coupled receptor (CTR) and receptor activity-modifying proteins (RAMPs). All three RAMPs can interact with the CTR and form AMY1, AMY2, AMY3 with RAMP1, RAMP2 and RAMP3, respectively. Like other class B1 GPCRs, the CT receptor family is canonically coupled to Gs-mediated cAMP production, and measurement of cAMP accumulation has been the primary assay used to determine peptide selectivity and potency.
(§1) To optimize functional activity directed toward Gas coupling, COS-7 cells were stably transfected with human calcitonin receptor (CTR) and RAMP3, simultaneously. 100×concentration of compound working solutions were prepared with 4-fold serial dilution in 384-well Echo LDV plate (Labcyte, Cat #LP-0200-BC). 200 nL/well 100×concentration of compound working solutions were moved to 384-well white microplate (Perkin Elmer, Cat #6007680) using Labcyte ECHO550. […] cells/mL COS-7/AMY3 cell suspensions prepared with assay buffer [HBSS containing 20 mM HEPES (Gibco, Cat #15630-080), 0.5 mM IBMX (Sigma, Cat #15879) and 0.1% Casein (Sigma, Cat #C4765)], 20 μL cell suspensions were added to each well of previous generated assay plate which already contains 200 nL compound at 100×concentration using ThermoFisher Multidrop Combi (2000 cells/well). Seal the plate and incubate at 37° C. with 5% CO2 for 30 min.
(§2) After incubation, the cAMP assay signal was generated using cAMP dynamic 2 kit (Revvity, Cat #62AM4PEC). 10 μL cAMP-d2 working solution was added to each well, followed by 10 μL Anti-cAMP antibody-cryptate working solution which was added to each well using CERTUS FLEX LIQUID DISPENSER The samples were then incubated at room temperature for 1 hour protected from light. the fluorescence was read at 665 and 615 nm with Reader PerkinElmer EnVision 2105.

[2] = target: T1, human calcitonin receptor (CTR) (Homo sapiens, UniProt P30988); assay: Calcitonin receptor (CTR) cAMP Assay; format: cell-based; conditions: COS7-human CTR Clone #2 cells, cAMP dynamic 2 kit; read-out: Calcitonin Receptor cAMP Stimulation Activity: EC50
T1 construct: expressed in transfected cells; host or cells: COS-7 (COS7-human CTR Clone #2)
T1 sequence (P30988 25-474): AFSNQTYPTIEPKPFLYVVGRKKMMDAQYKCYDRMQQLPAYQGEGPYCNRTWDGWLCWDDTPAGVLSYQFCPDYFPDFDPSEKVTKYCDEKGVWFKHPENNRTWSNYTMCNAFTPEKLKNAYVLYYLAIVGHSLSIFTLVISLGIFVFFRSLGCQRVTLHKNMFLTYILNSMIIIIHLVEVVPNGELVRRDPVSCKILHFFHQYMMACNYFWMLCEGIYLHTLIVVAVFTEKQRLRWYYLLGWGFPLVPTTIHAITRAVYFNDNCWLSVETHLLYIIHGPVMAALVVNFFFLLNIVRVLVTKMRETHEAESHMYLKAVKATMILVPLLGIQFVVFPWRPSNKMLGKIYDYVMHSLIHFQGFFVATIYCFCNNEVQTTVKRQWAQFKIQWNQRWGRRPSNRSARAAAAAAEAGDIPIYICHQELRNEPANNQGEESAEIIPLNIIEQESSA
From the text: Calcitonin receptor (CTR) cAMPAssay
The calcitonin receptor (CTR) belongs to the subfamily of GPCRs known as the secretin or ‘B’ family of GPCRs. Like other class B1 GPCRs, the CT receptor family is canonically coupled to Gs-mediated cAMP production, and measurement of cAMP accumulation has been the primary assay used to determine peptide selectivity and potency.
as §1, with “to create COS7-human CTR Clone #2 stable cell line. 100× concentration” for “and RAMP3, simultaneously. 100×concentration”, “COS7-human CTR Clone #2” for “COS-7/AMY3”
as §2, with “#62AM4PEC). […] cAMP-d2 working” for “#62AM4PEC). 10 μL cAMP-d2 working”

Sequence of human calcitonin receptor (CTR) and RAMP3 (AMY3) (O60896 24-148, one chain of several): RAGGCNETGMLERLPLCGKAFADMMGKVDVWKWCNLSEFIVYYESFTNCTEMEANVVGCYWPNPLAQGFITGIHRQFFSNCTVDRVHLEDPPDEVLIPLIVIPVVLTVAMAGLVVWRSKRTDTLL

EC50 [1] [nM] | EC50 [2] [nM] | Compound
3100 | 1050 | Cc1nnc(-c2c(CCC3CCOCC3)nc3c(c2-c2cn4cccc(N[C@@H]5CCc6ncccc65)c4n2)S(=O)(=O)CC3C(C)C)o1 (stereo partly drawn) [Compound 88, N—(R)-4-aza-1-indanyl(2-(3-isopropyl-6-(5-methyl-1,3,4-oxadiazol-2-yl)-1,1-dioxo-5-[2-(tetrahydro-2H-pyran-4-yl)ethyl]-1λ^6-thia-4-aza-7-indanyl}-1,3a-diaza-7-indenyl)amine]
587 | 42.9 | Cc1nnc(-c2c(CCC3CCOCC3)nc3c(c2-c2cc4ncnc(N[C@@H]5CCc6ncccc65)c4s2)S(=O)(=O)CC3C(C)C)o1 (stereo partly drawn) [Compound 89, N—(R)-4-aza-1-indanyl(2-(3-isopropyl-6-(5-methyl-1,3,4-oxadiazol-2-yl)-1,1-dioxo-5-[2-(tetrahydro-2H-pyran-4-yl)ethyl]-1λ^6-thia-4-aza-7-indanyl}-1-thia-4,6-diaza-7-indenyl)amine]
1580 | 998 | Cc1nnc(-c2c(CCC3CCOCC3)nc3c(c2-c2cc4ccnc(N[C@@H]5CCc6ncccc65)c4o2)S(=O)(=O)CC3C(C)C)o1 (stereo partly drawn) [Compound 90, N—(R)-4-aza-1-indanyl(2-(3-isopropyl-6-(5-methyl-1,3,4-oxadiazol-2-yl)-1,1-dioxo-5-[2-(tetrahydro-2H-pyran-4-yl)ethyl]-1λ^6-thia-4-aza-7-indanyl}-1-oxa-6-aza-7-indenyl)amine]

More lines, now with the values behind:

Compound | EC50 [1] [nM] | EC50 [2] [nM]
COc1cccc2c1CC[C@H]2Nc1nccc2cc(-c3c(-c4nnc(C)o4)c(CCC4CCOCC4)nc4c3S(=O)(=O)N3CCC[C@@H]43)sc12 [Compound 84, [(R)-4-methoxy-1-indanyl](2-((2S)-10-(5-methyl-1,3,4-oxadiazol-2-yl)-7,7-dioxo-11-[2-(tetrahydro-2H-pyran-4-yl)ethyl]-7λ^6-thia-6,12-diazatricyclo[6.4.0.0^2,6]dodeca-1(12),8,10-trien-9-yl}-1-thia-6-aza-7-indenyl)amine] | 91.6 | 7.4
COc1cccc2c1CC[C@H]2Nc1nccc2cc(-c3c4c(nc(CCc5ccc(F)cc5)c3-c3nnc[nH]3)[C@@H]3CCCN3C4=O)sc12 [Compound 85, (S)-2-(4-fluorophenethyl)-4-(7-(((R)-4-methoxy-2,3-dihydro-1H-inden-1-yl)amino)thieno[2,3-c]pyridin-2-yl)-3-(4H-1,2,4-triazol-3-yl)-7,8,9,9a-tetrahydro-5H-pyrido[2,3-a]pyrrolizin-5-one] | 13 | 0.676
COc1cccc2c1CC[C@H]2Nc1nccc2cc(-c3c4c(nc(CCc5ccc(F)cc5)c3-c3nnc(N)o3)[C@@H]3CCCN3C4=O)sc12 [Compound 86, (2S)-9-(7-[(R)-4-methoxy-1-indanylamino]-1-thia-6-aza-2-indenyl}-10-(5-amino-1,3,4-oxadiazol-2-yl)-11-[2-(p-fluorophenyl)ethyl]-6,12-diazatricyclo[6.4.0.0^2,^6]dodeca-1(8),9,11-trien-7-one] | 9.66 | 0.398
Cc1nnc(-c2c(CCC3CCOCC3)nc3c(c2-c2cn4c(N[C@@H]5CCc6ncccc65)cccc4n2)S(=O)(=O)CC3C(C)C)o1 (stereo partly drawn) [Compound 87, N—(R)-4-aza-1-indanyl(2-(3-isopropyl-6-(5-methyl-1,3,4-oxadiazol-2-yl)-1,1-dioxo-5-[2-(tetrahydro-2H-pyran-4-yl)ethyl]-1λ^6-thia-4-aza-7-indanyl}-1,3a-diaza-4-indenyl)amine] | > 100 | 4380
Cc1cc(-c2c(CCC3CCOCC3)nc3c(c2-c2cc4ccnc(N[C@@H]5CCc6ncccc65)c4s2)S(=O)(=O)CC3C(C)C)ccn1 (stereo partly drawn) [Compound 91, 7-(7-(((R)-6,7-dihydro-5H-cyclopenta[b]pyridin-5-yl)amino)thieno[2,3-c]pyridin-2-yl)-3-isopropyl-6-(2-methylpyridin-4-yl)-5-(2-(tetrahydro-2H-pyran-4-yl)ethyl)-2,3-dihydrothieno[3,2-b]pyridine 1,1-dioxide] | 499 | 45.2
